Literature values, collected in PMC11923824, “Spider-derived peptide LCTx-F2 suppresses ASIC channels by occupying the acidic pocket” (The Journal of Biological Chemistry, 2025).

Key:
ASIC3 channel = conditions: nonproton ligand
Description: (§1) ASIC channels, particularly ASIC1a and ASIC3, are affected by certain cations like Ca^2+ and Zn^2+, which provides valuable insights for the development of novel drugs targeting ASICs. […] Depletion of insulin leads to an increase in ASIC1a channel expression in Chinese hamster ovary cells and neurons.

ASICs = conditions: no reference given
Description: as §1

humans = conditions: no reference given
Description: as §1

neuron = conditions: no reference given
Description: as §1

human ASIC3 channel = system: human ASIC3 channel
Description: (§2) ASICs play a crucial role in pain perception among mammals ([39], [40]). Some animal toxins that are involved in prey capture and defense mechanisms act on ASICs ([26], [41]). For instance, the venom from Micrurus tener tener causes intense and persistent pain by enhancing the activation of ASICs through the MitTx toxin ([27]). ASICs are also considered important targets for pain relief, and certain chemicals that block their activity have shown strong analgesic effects in tests with living organisms ([42], [43]).

rASIC3 channel = biological target: T1, rASIC3 channel (Rattus norvegicus, UniProt O35240)
T1 construct: expressed in transfected cells; host or cells: human embryonic kidney 293 cells
T1 sequence (O35240 1-533): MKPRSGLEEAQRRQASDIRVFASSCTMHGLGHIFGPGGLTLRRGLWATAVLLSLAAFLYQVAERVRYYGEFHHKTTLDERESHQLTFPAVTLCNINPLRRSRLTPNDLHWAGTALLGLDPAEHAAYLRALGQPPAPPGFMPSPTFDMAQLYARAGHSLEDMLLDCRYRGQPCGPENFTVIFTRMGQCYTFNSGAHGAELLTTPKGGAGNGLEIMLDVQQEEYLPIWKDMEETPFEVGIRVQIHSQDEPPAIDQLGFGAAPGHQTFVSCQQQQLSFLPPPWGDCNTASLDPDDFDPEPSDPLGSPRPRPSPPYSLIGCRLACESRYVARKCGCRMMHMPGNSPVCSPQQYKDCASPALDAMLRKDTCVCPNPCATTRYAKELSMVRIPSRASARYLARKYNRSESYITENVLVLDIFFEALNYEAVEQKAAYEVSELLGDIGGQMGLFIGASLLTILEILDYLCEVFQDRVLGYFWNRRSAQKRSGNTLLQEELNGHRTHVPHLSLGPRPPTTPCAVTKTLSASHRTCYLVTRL
Description: as §2, with “Venom serves as a crucial weapon for animals in hunting prey and defending against enemies. Spider venom contains a variety of peptide toxins, some of which induce pain by targeting different ion channels ([29], [30], [31]), whereas others have analgesic properties and block the pain pathway ([32], [33], [34]). […] Derived from the spider Lycosa singoriensis, LCTx-F2 enhances ... || ASICs play” for “ASICs play”

rASIC2a channel = system: rASIC2a channel
Description: Venom serves as a crucial weapon for animals in hunting prey and defending against enemies. Spider venom contains a variety of peptide toxins, some of which induce pain by targeting different ion channels ([29], [30], [31]), whereas others have analgesic properties and block the pain pathway ([32], [33], [34]). […] Derived from the spider Lycosa singoriensis, LCTx-F2 enhances ...

ASIC1a channel = system: ASIC1a channel
Description: ASIC channels, particularly ASIC1a and ASIC3, are affected by certain cations like Ca^2+ and Zn^2+, which provides valuable insights for the development of novel drugs targeting ASICs. […] Depletion of insulin leads to an increase in ASIC1a channel expression in Chinese hamster ovary cells and neurons. […] Spider venom contains a variety of peptide toxins, some of which induce pain by targeting different ion channels ([29], [30], [31]), whereas others have analgesic properties and block the pain pathway ([32], [33], [34]). […] Derived from the spider Lycosa singoriensis, LCTx-F2 enhances ...

ischemic stroke = system: ischemic stroke
Description: as §1

[1] = system: ASICs in dorsal root ganglion neurons; conditions: no reference given
Description: as §1

hASIC1a channel = conditions: interacts with helix α5 of the thumb domain
[2] = system: ASIC1a channel in Xenopus oocytes; conditions: no reference given
Description: as §1

In the case of Cc1nc(NC(=N)N)nc2ccccc12 [2-guanidine-4-methylquinazoline], the “activation of ASIC3” value (ASIC3 channel) is listed as “activated”.

In the case of N=C(N)NC(=O)c1nc(Cl)c(N)nc1N [Amiloride], the “effect on ASICs, amiloride” value (ASICs) is listed as “can suppress most ASICs”, the “analgesic effect in humans” value (humans) is listed as “has shown analgesic effects in humans” and the “protection against acidosis-induced neuron damage” value (neuron) is listed as “provides protection against acidosis-induced neuron damage”.

In the case of APETx2, the “inhibition of hASIC3 (in words)” value (human ASIC3 channel) is given as “inhibit both rASIC3 and hASIC3 channels”, the IC50 (human ASIC3 channel; read-out: IC50 against human ASIC3 channel) is given as 0.175 µM and the “effect on rASIC3 (in words)” value (rASIC3 channel) is given as “inhibit both rASIC3 and hASIC3 channels”.

For PcTx1, the “effect on rASIC2a (in words)” value (rASIC2a channel) is given as “not the rASIC2a or rASIC3 channels”, the “effect on ASIC1a (in words)” value (ASIC1a channel) is given as “selectively inhibit the ASIC1a channel” and the “site of action on ASIC1a” value (ASIC1a channel) is given as “inserts into the acidic pocket of ASIC1a channels”. For the same molecule, the “neuroprotection in ischemic stroke” value (ischemic stroke) was “exhibits neuroprotection”.

For “bradykinin: proinflammatory mediator (RPPGFSPFR; Bradykinin; UniProt P01042 381-389, looked up)”, the “effect on ASIC expression” value [1] is listed as “increase the expression of ASICs”.

In the case of “mambalgin-1: snake toxin mambalgin-1 (LKCYQHGKVVTCHRDMKFCYHNTGMPFRNLKLILQGCSSSCSETENNKCCSTDRCNK; UniProt P0DKR6 22-78, looked up)”, the “effect on proton sensitivity of hASIC1a” value (hASIC1a channel) is given as “reduces the proton sensitivity”.

For “nerve growth factor: proinflammatory mediator”, the “effect on ASIC expression” value [1] is listed as “increase the expression of ASICs”.

B1: matriptase: protease cleaving ASIC1a (protein, UniProt Q9Y5Y6 1-855, looked up)
Suppressor of tumorigenicity …: MGSDRARKGGGGPKDFGAGLKYNSRHEKVNGLEEGVEFLPVNNVKKVEKHGPGRWVVLAAVLIGLLLVLLGIGFLVWHLQYRDVRVQKVFNGYMRITNENFVDAYENSNSTEFVSLASKVKDALKLLYSGVPFLGPYHKESAVTAFSEGSVIAYYWSEFSIPQHLVEEAERVMAEERVVMLPPRARSLKSFVVTSVVAFPTDSKTVQRTQDNSCSFGLHARGVELMRFTTPGFPDSPYPAHARCQWALRGDADSVLSLTFRSFDLASCDERGSDLVTVYNTLSPMEPHALVQLCGTYPPSYNLTFHSSQNVLLITLITNTERRHPGFEATFFQLPRMSSCGGRLRKAQGTFNSPYYPGHYPPNIDCTWNIEVPNNQHVKVRFKFFYLLEPGVPAGTCPKDYVEINGEKYCGERSQFVVTSNSNKITVRFHSDQSYTDTGFLAEYLSYDSSDPCPGQFTCRTGRCIRKELRCDGWADCTDHSDELNCSCDAGHQFTCKNKFCKPLFWVCDSVNDCGDNSDEQGCSCPAQTFRCSNGKCLSKSQQCNGKDDCGDGSDEASCPKVNVVTCTKHTYRCLNGLCLSKGNPECDGKEDCSDGSDEKDCDCGLRSFTRQARVVGGTDADEGEWPWQVSLHALGQGHICGASLISPNWLVSAAHCYIDDRGFRYSDPTQWTAFLGLHDQSQRSAPGVQERRLKRIISHPFFNDFTFDYDIALLELEKPAEYSSMVRPICLPDASHVFPAGKAIWVTGWGHTQYGGTGALILQKGEIRVINQTTCENLLPQQITPRMMCVGFLSGGVDSCQGDSGGPLSSVEADGRIFQAGVVSWGDGCAQRNKPGVYTRLPLFRDWIKENTGV
In the case of B1, the “effect of cleavage on ASIC1a current” value [2] is listed as “reduces its current”.
